Entries after “also recorded” stand apart in the source; their conditions may differ. Where two headings read alike, the source gives them in different places. Peptide text beside a SMILES is read from it.
What was measured:
platelet aggregation = conditions: In vitro; Jollès 1986; cited from earlier work
pathogenic strains = conditions: In vitro, cited from earlier work
[1] = Storage of fermented then thermised product with peptide added after fermentation; assay type: physicochemical; conditions: thermised at 75° C. for 1 minute, stored at 10° C. until BBD (FIG. 5)
Protocol: FIG. 5: Curves illustrating changes in the residual content of αS1[91-100] bioactive peptide added after fermentation, in a product fermented and then thermised at 75° C. for 1 minute and stored at 10° C. until the Best Before Date (BBD).
This solution effectively has numerous drawbacks: • thermisation of a fermented milk mass implies the use of stabilisers added before the heat treatment (pectins, starches, carrageenans, etc.) which complicates the method and substantially increases the cost of the formula; • the industrial production line is more complex and requires specific, higher investment; • the product no longer benefits from quality labels related to products containing living ferments (yoghurt type), and thereby loses the benefits associated with the consumption of lacetic ferments; • the organoleptic impact (generally negative) is significant.

[2] = tested on: Pure strains (Lactobacillus); test: Fermentation of reconstituted milk with 1.5 g/L Lactium by pure strains; assay type: physicochemical; conditions: milk mix containing 1.5 g/L Lactium®, fermentation halted at pH 4.7
Protocol: (§1) Analysis of the residual peptides, in particular of the bioactive peptide αS1[91-100], was conducted using a HPLC method coupled to a detector of MS/MS type as described below: • the sample was prepared by diluting the fermented medium in a mixture of water, methanol and trifluoroacetic acid (50/50/0.1%) to a ratio of approximately 1 to 6. The supernatant after centrifuging formed the sample representing the peptide content of the fermented medium. • this sample was injected into a HPLC chromatography system of Agilent 1100 type (Agilent Technologies France, 1 rue Galvani 91745 Massy Cedex France) equipped with a column adapted for peptide analysis of Waters Symetry® type (5 μm 2.1×150 mm, WAT056975, Waters, France, 5 Rue Jacques Monod, 78280 Guyancourt) at a temperature of 40° C. and flow rate 0.25 ml/min. The peptides were eluted in conventional manner against an increasing gradient of solvent B (Acetonitrile+0.100% formic acid) in solvent A (Water+0.106% formic acid) for a time of 40 min to 2 hours in relation to desired resolution. • detection was made using a specific detector of MS/MS type, for example of ion trap type such as the Esquire 3000+(Bruker, Daltonique, rue de l'Industrie 67166 Wissembourg Cedex) adjusted either for global analysis of the peptide content (MS-MS mode) or for precise, specific quantification of a peptide from its characteristic fragments. For example the αS1[91-100] peptide was isolated from its mass (double charged ion of mass 634.5 Da) and quantified from the intensity of its characteristic daughter ions after fragmenting (ions with m/z 991.5 Da, 771.5 Da and 658.3 Da). In even more precise manner, an internal standard consisting of the same synthetic peptide deuterated twice (characteristic fragment of 993.5 Da) allowed any matrix-related interferences to be overcome and taken into account.
(§2) To verify that this phenomenon is not particular to the two ferments used in paragraph 1.1) above, the main industrial ferments and different pure strains entering into the composition of these ferments, were tested on the same test basis: milk reconstituted from milk powder, to which Lactium® was added at a dose of 1.5 g/L, was fermented under standard conditions (optimal ferment temperature between 37 and 42° C., halting of fermentation at pH 4.7, two repeats). Analysis of the level of αS1[91-100] bioactive peptide was conducted on the sample before and after fermentation.
(§3) In Table 3 above, which reflects consumption of the bioactive peptide aS1[91-100] by different ferments and industrial strains during fermentation of a milk mix containing 1.5 g/L Lactium®, the pure strains were identified by their numbers and respective date of depositing with the CNCM (Institut Pasteur, Paris France).

[3] = tested on: Pure strains (S. thermophilus); test: as above; assay type: physicochemical; conditions: milk mix containing 1.5 g/L Lactium®, fermentation halted at pH 4.7
Protocol: as §1, §2, §3

[4] = tested on: ferment consisting of a mixture of strains 1-2783, 1-2774, 1-2835 and 1-1968; test: Fermentation of milk mix containing Lactium up to pH 4.70, residual peptides by HPLC-MS/MS; assay type: physicochemical; conditions: 1.5 g/L Lactium® added before fermentation
Protocol: (§4) Protocol: the medium was prepared by hydrating a skimmed milk powder at 120 g/L, to which 1.5 g/L of Lactium® ingredient is added (corresponding to approximately 30 mg/L αs1 [91-100] bioactive peptide) then pasteurised at 95° C. for 8 minutes.
(§5) The lacetic ferment was added at a percentage of 0.02% and fermentation was conducted at the optimal temperature of the chosen ferment (between 37 and 42° C.) up to a pH of 4.70.
Analysis of the residual peptides, in particular of the bioactive peptide αS1[91-100], was conducted using a HPLC method coupled to a detector of MS/MS type as described below: • the sample was prepared by diluting the fermented medium in a mixture of water, methanol and trifluoroacetic acid (50/50/0.1%) to a ratio of approximately 1 to 6. […] The peptides were eluted in conventional manner against an increasing gradient of solvent B (Acetonitrile+0.100% formic acid) in solvent A (Water+0.106% formic acid) for a time of 40 min to 2 hours in relation to desired resolution. • detection was made using a specific detector of MS/MS type, for example of ion trap type such as the Esquire 3000+(Bruker, Daltonique, rue de l'Industrie 67166 Wissembourg Cedex) adjusted either for global analysis of the peptide content (MS-MS mode) or for precise, specific quantification of a peptide from its characteristic fragments. […]

fermented mass = test: Storage of fermented mass with Lactium encapsulated in palm oil emulsion; assay type: physicochemical
Protocol: FIG. 6: Illustration of the change in content of encapsulated bioactive ingredient over time (storage at 4° C.).
FIG. 7: Compared peptide profiles (LC-MS/MS chromatograms) of a milk mix containing 1.5 g/L Lactium® added in the form of an emulsion in palm oil according to the present invention, immediately after addition to the fermented mass (1) and after 14 days' storage at 10° C. (2).
The oil was melted at 50° C. to obtain total absence of crystals, and the Lactium® containing the bioactive food ingredient αS1(91-100] was gradually added under magnetic stirring (maintained at 50° C.).
A type of syrup was prepared from water and the premix of palm oil/bioactive food ingredient. The bioactive food ingredient was gradually added to the water (30° C.) under Ultraturax stirring (22000 rpm), the palm content of the solution being arbitrarily fixed at […].
The emulsion obtained was easily pumpable at 30° C.-35° C., but became progressively firmer as soon as the temperature fell to below 25° C.-30° C. (progressive recrystallisation of the palm oil). The use of a food emulsifier (e.g. Lactem® supplied by Danisco) to the proportion of 0.5%/fat led to obtaining a population of fatty globules that was less heterogeneous.

[5] = tested on: ferment YC380 (Chr. Hansen); test: Fermentation of milk mix containing hydrolysate up to pH 4.7, residual peptides by HPLC-MS/MS; assay type: physicochemical
Protocol: FIG. 3: Compared peptide profiles (LC-MS/MS chromatograms) of a milk “mix” containing 1.5 g/L DMV C12® hydrolysate before (1) and after (2) fermentation up to pH 4.7 by the lacetic ferment Hansen YC380. Almost all the peptides of the hydrolysate, including the bioactive C12 peptide (fragment αS1[23-34] disappeared after metabolisation by the ferment strains.
as §4, §5
Analysis of the residual peptides, in particular of the bioactive peptide αS1[91-100], was conducted using a HPLC method coupled to a detector of MS/MS type as described below: • the sample was prepared by diluting the fermented medium in a mixture of water, methanol and trifluoroacetic acid (50/50/0.1%) to a ratio of approximately 1 to 6. […] For example the αS1[91-100] peptide was isolated from its mass (double charged ion of mass 634.5 Da) and quantified from the intensity of its characteristic daughter ions after fragmenting (ions with m/z 991.5 Da, 771.5 Da and 658.3 Da). […]

[6] = Hypertensive rats, after ingestion; Nakamura 1995; cited from earlier work
[7] = Normal rats; Nakamura 1995; cited from earlier work
[8] = Human hypertension (36 patients), after 8 weeks' ingestion of 95 mL/d; Hata 1996; cited from earlier work
[9] = Dog, 10 g/300 mL water by stomach tube; cancelled by naloxone; Defilippi 1986; cited from earlier work
[10] = In vivo animal; Migliore-Samour 1988; cited from earlier work

Peptide 106-116 of bovine κ-casein: fragment 106-116 of bovine κ-casein (MAIPPKKNQDK; UniProt P02668 127-137, looked up, fragment)
platelet aggregation (platelet aggregation): Inhibits

Lactoferricin
growth of pathogenic strains (pathogenic strains; Tomita 1994-Zucht 1995): Inhibited growth of pathogenic strains

αS1[91-100]: bioactive peptide with relaxing properties contained in the hydrolysate of milk proteins marketed by Ingredia as Lactium® (YLGYLEQLLR; UniProt P02662 106-115, looked up, fragment)
stability of the peptide in heat-treated fermented product [1]: possible to ensure the stability; also recorded: possible to preserve
% αS1[91-100] peptide remaining after fermentation ([2]; strain 1-1519 (30 Dec. 1994)): 0.1%
% αS1[91-100] peptide remaining after fermentation ([2]; strain 1-1632 (24 Oct. 1995)): 0.2%
% αS1[91-100] peptide remaining after fermentation ([2]; strain 1-1968 (14 Jan. 1998)): 1.6%
% αS1[91-100] peptide remaining after fermentation ([2]; strain 1-2809 (19 Feb. 2002)): 0.4%
% αS1[91-100] peptide remaining after fermentation ([3]; strain 1-1477 (22 Sep. 1994)): 0.3%
% αS1[91-100] peptide remaining after fermentation ([3]; strain 1-1630 (24 Oct. 1995)): 0.3%
bioactive peptide consumed after fermentation [4]: more than 95%
content of encapsulated bioactive ingredient over time (fermented mass; encapsulated in palm oil emulsion, added to fermented white mass, storage at 4° C. (FIG. 6)): stability
bioactive peptide consumed after fermentation ([5]; 1.5 g/L Lactium® added before fermentation, up to pH 4.70): more than 95%

Val-Pro-Pro [Val-Pro-Pro (VPP)]
blood pressure [6]: ingestion, reduced blood
blood pressure [7]: Normal rats: no effect
blood pressure [8]: reduced blood pressure

Il-Pro-Pro [Il-Pro-Pro (IPP)]
blood pressure [6]: ingestion, reduced blood
blood pressure [7]: Normal rats: no effect
blood pressure [8]: reduced blood pressure

αS1[23-34]: bioactive C12 peptide, present in the C12 ingredient by DMV International and in Lactium® (FFVAPFPEVFGK; UniProt P02662 38-49, looked up, fragment)
protection of peptide (LC-MS/MS peptide profile) (fermented mass; 1.5 g/L Lactium® as emulsion in palm oil, after 14 days' storage at 10° C. (FIG. 7)): well protected
peptides after fermentation (LC-MS/MS peptide profile) ([5]; milk mix containing 1.5 g/L DMV C12® hydrolysate, fermentation up to pH 4.7 (FIG. 3)): disappeared

Casein
small intestine motility [9]: inhibition of small intestine

Casein 191-193: fragment 191-193 of bovine β-casein (LLY; UniProt P02666 206-208, looked up, fragment)
in vivo protection [10]: No in vivo protection

CC[C@H](C)[C@H](NC(=O)[C@@H]1CCCN1C(=O)[C@H](Cc1cnc[nH]1)NC(=O)[C@H](CCCCN)NC(=O)[C@@H]1CCCN1C(=O)[C@@H](N)CCCNC(=N)N)C(=O)N[C@@H](CCCCN)C(=O)N[C@@H](Cc1cnc[nH]1)C(=O)N[C@@H](CCC(N)=O)C(=O)NCC(=O)N[C@@H](CC(C)C)C(=O)N1CCC[C@H]1C(=O)N[C@@H](CCC(N)=O)C(=O)N[C@@H](CCC(=O)O)C(=O)N[C@H](C(=O)N[C@@H](CC(C)C)C(=O)N[C@@H](CC(N)=O)C(=O)N[C@@H](CCC(=O)O)C(=O)N[C@@H](CC(N)=O)C(=O)N[C@@H](CC(C)C)C(=O)N[C@@H](CC(C)C)C(=O)N[C@@H](CCCNC(=N)N)C(=O)N[C@@H](Cc1ccccc1)C(=O)O)C(C)C [isracidin] (H-RPKHPIKHQGLPQEVLNENLLRF-OH)
growth of pathogenic strains (pathogenic strains; Lahov 1996): Inhibited growth of pathogenic

Casein 63-68: fragment 63-68 of bovine β-casein (PGPIPN; UniProt P02666 78-83, looked up, fragment)
in vivo protection [10]: No in vivo protection

Reference: US20080050355A1, “PROTECTION OF BIOACTIVE FOOD INGREDIENTS BY MEANS OF ENCAPSULATION” (COMPAGNIE GERVAIS DANONE, priority 2004, published 2008)
